{
  "source": "patent US12611423B2",
  "about": "“Medical use of tafoxiparin” (DILAFOR AB, priority 2022, dated 2026)",
  "test_system": "term pregnant, nulliparous women with an unripe cervix",
  "assay": "Clinical phase II trial PPL17 (Parts A and B), subcutaneous tafoxiparin vs placebo",
  "format": "in vivo, human",
  "settings": "for Labor induced with PGE-1, % of women: placebo 10.2%; for Fetal distress as indication for operative delivery (ODFD), % of women: placebo 22.7%; for patients with operative delivery, % / women needing instrumental delivery (FIG. 4, vaginal mode of partus): placebo 45.5%; for Labor induced with amniotomy, % of women: placebo 56.8%; for Labor induction with Balloon catheter, % of women: placebo 58.0%; for Labor induced, % of women: placebo 70.5%; for women needing instrumental delivery or caesarian section to reach partus (FIG. 5): placebo 52%; for women reaching partus by vaginal delivery with no need for instrumental delivery nor caesarian section (FIG. 5): placebo 48%; for number of subjects (women) that reach spontaneous onset of labor / subjects (women) that reach spontaneous onset of labor, % of n: cumulative, n = 37",
  "protocol": "A clinical phase II trial is performed as a randomized, double-blind, placebo-controlled, parallel-group proof of concept study (Part A) with a conditional dose finding follow up study (Part B) to evaluate the efficacy, safety, tolerability and dose response of subcutaneously administered tafoxiparin as a supplement to induction therapy in term pregnant, nulliparous women with an unripe cervix. The study is performed in Sweden and Finland (PPL17), and an EMA (European Medicines Agency) description of the study can be found on the EU Clinical Trials Register web (www.clinicaltrialsregister.eu/ctr-search/search?query=PPL17).\nA total of 170 term pregnant women are randomized to receive either 300 mg of tafoxiparin, or corresponding placebo (vehicle), administered subcutaneously every 24±3 hours and up to a total of 7 doses, or until partus (Part A).\nIn the dose finding follow up study (Part B), a total of 164 term pregnant women are randomized to receive either 75 or 150 mg of tafoxiparin administered subcutaneously every 24±3 hours […] and up to a total of 7 doses, or until partus.\nTo assess the efficacy of tafoxiparin on cervical ripening/cervical ripening rate, during and up to the first seven days of treatment, measured by Bishop score. All women must be examined to check the cervical state before enrollment.\nTafoxiparin/Placebo is supplied by Dilafor AB to the site as kits designed to constitute 300 mg of tafoxiparin or placebo for daily administration. Apart from the active substance, each ml of study drug will constitute 0.015 M phosphate buffer. The study medication kit for each patient will contain 8 doses consisting of 2 vials containing a minimum extractable volume of 1.6 ml of 150 mg/ml of tafoxiparin or placebo. One dose is a reserve dose in case a dose is rendered unusable. The investigational product should be administered subcutaneously every 24±3 hours by the site staff for up to 7 doses, or until partus. At each dosing time 1.0 ml of the drug will be extracted from each of the 2 vials and injected as separate s.c. injections in the abdominal or hip region.\nTafoxiparin/Placebo is supplied by Dilafor AB to the site as kits designed to constitute 75 or 150 mg of tafoxiparin for daily administration. Apart from the active substance, each ml of study drug will constitute 0.015 M phosphate buffer. The study medication kit for each patient will contain 8 doses consisting of 2 vials for each injection occasion containing a minimum extractable volume of 1.6 ml of 150 mg/ml of tafoxiparin or placebo. For subjects receiving 75 mg of tafoxiparin, one vial will contain active substance and one containing placebo. For subjects receiving 150 mg of tafoxiparin, both vials will contain active substance. One dose is a reserve dose in case a dose is rendered unusable. The investigational product should be administered subcutaneously every 24±3 hours by the site staff for up to 7 doses, or until partus. At each dosing time, 0.5 ml of the drug will be extracted from each of the 2 vials and injected as separate s.c. injections in the abdominal or hip region.\nIf the subject is found to be eligible for the study, they will be randomized to study treatment, i.e. 300 mg of tafoxiparin or corresponding placebo daily (Part A), or 75 or 150 mg daily (Part B).\nThe study medication will be administered subcutaneously in the abdominal or hip region for up to a total of 7 doses or until labor induction or spontaneous onset of labor. If the cervix is still unripe after 7 doses of IMP, the patient is given cervical balloon catheter as a mean of labor induction.\nSubjects who enter into spontaneous onset of labor after 1-7 doses of IMP should be managed according to clinical routines.\nSubjects who are given 4-7 doses without entering into spontaneous onset of labor, but with a ripe cervix (Bishop Score ≥6), should be induced into labor by amniotomy and oxytocin treatment, but not before 4 treatment doses have been given. […]",
  "data": [
    {"substance": "tafoxiparin", "values": [
      {"measurement": "Labor induced with oxytocin, number of women", "setting": "150 mg, n = 85", "result": 38},
      {"measurement": "Labor induced, number of women", "setting": "150 mg, n = 85", "result": 48},
      {"measurement": "Labor induction with Balloon catheter, number of women", "setting": "150 mg, n = 85", "result": 37},
      {"measurement": "Number of patients with operative delivery", "setting": "150 mg, n = 85", "result": 41},
      {"measurement": "Labor induced with PGE-1, % of women", "setting": "150 mg, n = 85", "result": 8.2, "unit": "%"},
      {"measurement": "Fetal distress as indication for operative delivery (ODFD), % of women", "setting": "150 mg, n = 85", "result": 23.5, "unit": "%"},
      {"measurement": "patients with operative delivery, %", "setting": "150 mg, n = 85", "result": 48.2, "unit": "%"},
      {"measurement": "Labor induced with oxytocin, % of women", "setting": "150 mg, n = 85, placebo 54.5%", "result": 44.7, "unit": "%"},
      {"measurement": "Labor induced with amniotomy, % of women", "setting": "150 mg, n = 85", "result": 45.9, "unit": "%"},
      {"measurement": "Labor induction with Balloon catheter, % of women", "setting": "150 mg, n = 85", "result": 43.5, "unit": "%"},
      {"measurement": "Labor induced, % of women", "setting": "150 mg, n = 85", "result": 56.5, "unit": "%"},
      {"measurement": "women needing instrumental delivery (FIG. 4, vaginal mode of partus)", "setting": "150 mg, women with spontaneous onset of labor, 9 of the 32 women, p-value 0.422", "result": 28.1, "unit": "%"},
      {"measurement": "women needing instrumental delivery or caesarian section to reach partus (FIG. 5)", "setting": "150 mg, women with spontaneous onset of labor, 13 of 36 women", "result": 36.1, "unit": "%"},
      {"measurement": "women reaching partus by vaginal delivery with no need for instrumental delivery nor caesarian section (FIG. 5)", "setting": "150 mg, women with spontaneous onset of labor, 23 of 36 women", "result": 63.9, "unit": "%"},
      {"measurement": "time point of spontaneous onset of labor (FIG. 3, change of Bishop score)", "setting": "300 mg and 150 mg, women with spontaneous onset of labor", "result": "achieved spontaneous onset of labor at an earlier time point than women treated with 75 mg tafoxiparin and placebo"},
      {"measurement": "women achieving spontaneous onset of labor (FIG. 1)", "setting": "300 mg s.c. once daily up to 7 doses, 37 women of 90, p-value=0.089 (part A 0.080), placebo 28.7%", "result": 41.1, "unit": "%"},
      {"measurement": "development day-by-day towards a spontaneous onset of labor", "setting": "300 mg, 150 mg, 75 mg, Table 3", "result": "shows a dose-response relationship"},
      {"measurement": "women reaching spontaneous onset of labor with uncomplicated delivery", "setting": "300 mg, 27 of the 33 women, placebo 54.5%", "result": 81.8, "unit": "%"},
      {"measurement": "number of subjects (women) that reach spontaneous onset of labor", "setting": "300 mg, Study day 1", "result": 2},
      {"measurement": "subjects (women) that reach spontaneous onset of labor, % of n", "setting": "300 mg, Study day 1", "result": "(5%)"},
      {"measurement": "number of subjects (women) that reach spontaneous onset of labor", "setting": "300 mg, Study day 2", "result": 11},
      {"measurement": "subjects (women) that reach spontaneous onset of labor, % of n", "setting": "300 mg, Study day 2", "result": "(30%)"},
      {"measurement": "number of subjects (women) that reach spontaneous onset of labor", "setting": "300 mg, Study day 3", "result": 18},
      {"measurement": "subjects (women) that reach spontaneous onset of labor, % of n", "setting": "300 mg, Study day 3", "result": "(49%)"},
      {"measurement": "number of subjects (women) that reach spontaneous onset of labor", "setting": "300 mg, Study day 4", "result": 23},
      {"measurement": "subjects (women) that reach spontaneous onset of labor, % of n", "setting": "300 mg, Study day 4", "result": "(62%)"},
      {"measurement": "number of subjects (women) that reach spontaneous onset of labor", "setting": "300 mg, Study day 5", "result": 30},
      {"measurement": "subjects (women) that reach spontaneous onset of labor, % of n", "setting": "300 mg, Study day 5", "result": "(81%)"},
      {"measurement": "number of subjects (women) that reach spontaneous onset of labor", "setting": "300 mg, Study day 6", "result": 34},
      {"measurement": "subjects (women) that reach spontaneous onset of labor, % of n", "setting": "300 mg, Study day 6", "result": "(92%)"},
      {"measurement": "number of subjects (women) that reach spontaneous onset of labor", "setting": "300 mg, Study day 7", "result": 37},
      {"measurement": "subjects (women) that reach spontaneous onset of labor, % of n", "setting": "300 mg, Study day 7", "result": "(100%)"},
      {"measurement": "Fetal distress as indication for operative delivery (ODFD), number of women", "setting": "300 mg, n = 91", "result": 11},
      {"measurement": "Labor induced with PGE-1, number of women", "setting": "300 mg, n = 91", "result": 5},
      {"measurement": "Labor induced with amniotomy, number of women", "setting": "300 mg, n = 91", "result": 50},
      {"measurement": "Labor induced with oxytocin, number of women", "setting": "300 mg, n = 91", "result": 45},
      {"measurement": "Labor induced, number of women", "setting": "300 mg, n = 91", "result": 53},
      {"measurement": "Labor induction with Balloon catheter, number of women", "setting": "300 mg, n = 91", "result": 42},
      {"measurement": "Number of patients with operative delivery", "setting": "300 mg, n = 91", "result": 32},
      {"measurement": "Labor induced with PGE-1, % of women", "setting": "300 mg, n = 91", "result": 5.5, "unit": "%"},
      {"measurement": "Fetal distress as indication for operative delivery (ODFD), % of women", "setting": "300 mg, n = 91", "result": 12.1, "unit": "%"},
      {"measurement": "patients with operative delivery, %", "setting": "300 mg, n = 91", "result": 35.2, "unit": "%"},
      {"measurement": "Labor induced with oxytocin, % of women", "setting": "300 mg, n = 91, placebo 54.5%", "result": 49.5, "unit": "%"},
      {"measurement": "Labor induced with amniotomy, % of women", "setting": "300 mg, n = 91", "result": 54.9, "unit": "%"},
      {"measurement": "Labor induction with Balloon catheter, % of women", "setting": "300 mg, n = 91", "result": 46.2, "unit": "%"},
      {"measurement": "Labor induced, % of women", "setting": "300 mg, n = 91", "result": 58.2, "unit": "%"},
      {"measurement": "women needing instrumental delivery (FIG. 4, vaginal mode of partus)", "setting": "300 mg, women with spontaneous onset of labor, 6 of the 33 women, p-value=0.048 (part A 0.053)", "result": 18.2, "unit": "%"},
      {"measurement": "women needing instrumental delivery or caesarian section to reach partus (FIG. 5)", "setting": "300 mg, women with spontaneous onset of labor, 10 of the 37 women", "result": 27, "unit": "%"},
      {"measurement": "women reaching partus by vaginal delivery with no need for instrumental delivery nor caesarian section (FIG. 5)", "setting": "300 mg, women with spontaneous onset of labor, 27 of the 37 women", "result": 73, "unit": "%"},
      {"measurement": "effect on achieving spontaneous onset of labor", "setting": "all three doses 300 mg, 150 mg and 75 mg", "result": "effective for achieving spontaneous onset of labor"},
      {"measurement": "effect on mode of partus", "setting": "all three doses 300 mg, 150 mg and 75 mg, compared to placebo", "result": "effective for a person to reach partus by vaginal delivery and with less need for instrumental delivery or caesarian section"},
      {"measurement": "effect on need for instrumental delivery", "setting": "all three doses (300 mg, 150 mg and 75 mg), women with spontaneous onset of labor, compared to placebo", "result": "effective in reducing the need for instrumental delivery"},
      {"measurement": "effect on need for intervention to achieve onset of labor", "setting": "all three doses, compared to placebo", "result": "reduced the need for intervention in order to achieve onset of labor"},
      {"measurement": "time point of achieving a ripe cervix", "setting": "any one of the three doses 75 mg, 150 mg and 300 mg, vs placebo", "result": "achieve a ripe cervix at an earlier time point than women that have been treated with placebo"},
      {"measurement": "need for operative delivery (caesarean section and instrumental delivery) due to fetal distress", "setting": "conclusion of the clinical study", "result": "reduction of the need for operative delivery"},
      {"measurement": "effect on cervical ripening (FIG. 3)", "setting": "doses 300 mg and 150 mg", "result": "beneficial effect on cervical ripening"},
      {"measurement": "estimated cervical ripening rate measured by Bishop score (FIG. 6)", "setting": "first 7 days of treatment, all three doses (300 mg, 150 mg and 75 mg) compared to placebo", "result": "higher"},
      {"measurement": "labor time up to vaginal delivery (partus) (FIG. 2, Kaplan-Meier)", "setting": "women with spontaneous onset of labor, 300 mg (p=0.070), 150 mg (p 0.654), 75 mg (p 0.114) vs placebo", "result": "shorter labor time up to vaginal delivery (partus) compared to placebo"}
    ]}
  ]
}
